The IC50 is the concentration that inhibits the measured activity by half. The term EC50 denotes the concentration giving half of the maximal effect.

Results on seven compounds are retold here after US20250026745A1 (Bluejay Therapeutics, Inc., priority 2023, published 2025).

Where two headings read alike, the source gives them in different places.

The conditions of data set [1]: cited from earlier work.
For data set [2], the target named is recombinant 17β-HSD13 protein (Homo sapiens (Human), UniProt Q7Z5P4). The data set is described as follows: 17β-HSD13 biochemical assay (NAD+/NADH Glo chemiluminescence). The note with it: 17β-HSD13 50 nM, NAD+ 10 mM, β-estradiol 20 μM, 2 hours room temperature. An outline of the steps:
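Compounds preincubated 1 h at room temperature with 50 nM enzyme and 10 mM NAD+ (final) in 200 mM Tris pH 7.5, 0.01% Triton X-100, 0.02% BSA. Reaction started with 20 μM β-estradiol and run 2 hours at room temperature; NADH formation detected by NAD+/NADH-Glo chemiluminescence. IC50 from four-parameter logistic fit.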

Data set [3] addresses HEK293 cells expressing 17β-HSD13 (Homo sapiens (Human), UniProt Q7Z5P4). The data set is described as follows: 17β-HSD13 cell-based assay (β-estradiol conversion, LC-MS/MS). Here is the method: HEK293 cells expressing 17β-HSD13 either stably or transiently were incubated with compounds for 60 min at 37° C. in a humidified incubator. After this first incubation step, β-estradiol was added to each well of the microtiter plate and incubated for 3 h at 37° C. in the humidified incubator. After treatment with β-Estradiol, 50 μL of supernatant was transferred to a 96-V plate containing 100 μL acetonitrile and centrifuged at 3900 rpm for 45 min. Finally, 50 μL of supernatant were taken for LC-MS/MS analysis. The chromatography part was run on a Xbridge 30 mm×2.1 mm column (Waters), at 40 degrees Celsius and a flow rate of 0.8 mL/min for 5 min, while the MS was done on a Q Exactive Orbitrap (Fisher Scientific) in Target SIM mode and negative polarity with a spray voltage of 3.5 kV. EC50 values were determined with GraphPad Prism®, where log-transformed concentration values and the inhibition data were fitted to a four-parameter logistic equation. Y=Bottom+(Top−Bottom)/(1+10^((Log EC50−X)*Hill Slope)). The original, % control, or % inhibition data are represented by Y along with their minimal (Bottom) and maximal (Top) values. The inhibitor concentration is represented by X, EC50 is the concentration at 50% maximal value, and Hill Slope is the slope factor.

The nature of data set [4]: Recovery of glucuronide Compound I-51 spiked into mouse liver tissue homogenate (30% ACN in water with 2% FA). Particulars: parent Compound I-16 measured in I-51-spiked sample. The format is in vitro ADME. The text has this:
Compound I-51, a glucuronide of compound I-16, was used to develop methodology to ensure the glucuronide metabolite of the phenol could be stabilized in liver tissue to glucuronidase and other enzymatic cleavage in order to determine accurate levels of parent:glucuronide in the liver tissue. A known amount of Compound I-51 was spiked into a gram of mouse liver tissue where 2% formic acid (FA) was used with 30% acetonitrile (ACN) in water to stop all enzymatic glucuronidase activity.
Comparison of Treatment on ‘30% ACN in Water with 2% FA’ Homogenate Buffer for Compound I-51:
1). Prepared the homogenate buffer ‘30% ACN in water with 2% FA’ (including […] Compound 1-51), then homogenized with the liver tissue together. Due to the ratio of 1:9 (1 g tissue with 9 mL buffer), the final concentration was 900 ng/mL.
2). An aliquot of 20 μL sample were taken for analysis. Compound I-51 was Added after Homogenate:
1). The liver tissue was homogenized with the buffer ‘30% ACN in water with 2% FA’, then 2 μL 18 µg/mL Compound I-51 was spiked in 38 μL liver homogenate, the final concentration was 900 ng/mL. 2). An aliquot of 20 μL sample were taken for analysis. […]
The amount of parent was measured under these conditions Compound I-16 after generating a standard curve for Compound I-16.

Where [5] appears, read: HEK293 cells stably expressing 17β-HSD13 (footnote b), read-out: EC50, nM Stable.

Sequence of recombinant 17β-HSD13 protein (Q7Z5P4 20-300): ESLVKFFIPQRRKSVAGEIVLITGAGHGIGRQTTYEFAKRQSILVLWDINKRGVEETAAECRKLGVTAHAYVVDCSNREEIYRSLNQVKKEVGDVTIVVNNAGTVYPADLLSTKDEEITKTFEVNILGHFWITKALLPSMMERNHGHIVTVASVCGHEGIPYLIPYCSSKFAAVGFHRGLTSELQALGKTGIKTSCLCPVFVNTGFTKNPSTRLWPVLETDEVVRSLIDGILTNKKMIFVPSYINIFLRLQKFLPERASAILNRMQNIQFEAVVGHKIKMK
Sequence of HEK293 cells expressing 17β-HSD13 (Q7Z5P4 20-300): as above

Consider `CCn1c(=O)c(C)cn(Cc2ccc(-c3ccc(F)c(O)c3F)s2)c1=O` [BI-3231], for which the “glucuronidation / in vivo clearance” value in data set [1] is given as “prone to rapid glucuronidation on the phenol moiety leading to fast in vivo clearance”.
`O=C1N(CC(F)(F)F)C(=O)C2(CC2)N1Cc1nnc(-c2ccc(F)c(O)c2Cl)s1` [Compound I-16, 4-((5-(2-chloro-4-fluoro-3-hydroxyphenyl)-1,3,4-thiadiazol-2-yl)methyl)-6-(2,2,2-trifluoroethyl)-4,6-diazaspiro[2.4]heptane-5,7-dione]: the IC50 in data set [2] was found to be 12.9 ± 2.43 nM. The concentration giving a half-maximal response (EC50) was 37.1 nM in data set [3] (setting [5]) and 107 nM in data set [3] (HEK293 cells transiently expressing 17β-HSD13 (footnote a), read-out: EC50, nM Transient). Also, the “Calculated Concentration (ng/mL) of parent” value in data set [4] (after homogenate) is 5.237 ng/mL; in data set [4] (before homogenate), 5.618 ng/mL.
As to `O=C1N([C@@H](c2ccc(-c3ccc(F)cc3)cc2F)C(F)(F)F)C(=O)C2(CC2)N1Cc1nnc(-c2ccc(F)c(O)c2F)s1` [Compound I-97, (S)-4-((5-(2,4-difluoro-3-hydroxyphenyl)-1,3,4-thiadiazol-2-yl)methyl)-6-(1-(3,4′-difluoro-[1,1′-biphenyl]-4-yl)-2,2,2-trifluoroethyl)-4,6-diazaspiro[2.4]heptane-5,7-dione], in data set [2], the IC50 worked out at 0.79 nM. The EC50 in data set [3] (setting [5]) turned out to be 4.66 nM.
For `C[C@@H](c1ccccc1)N1C(=O)N(Cc2nnc(-c3ccc(F)c(O)c3Cl)s2)C2(CC2)C1=O` [Compound I-32, (S)-4-((5-(2-chloro-4-fluoro-3-hydroxyphenyl)-1,3,4-thiadiazol-2-yl)methyl)-6-(1-phenylethyl)-4,6-diazaspiro[2.4]heptane-5,7-dione] the same measures were 3.72 nM and 14.7 nM.
For `Cc1c(-c2nnc(CN3C(=O)N([C@@H](c4ccccc4)C(F)(F)F)C(=O)C34CC4)s2)ccc(F)c1O` [Compound I-91, (S)-4-((5-(4-fluoro-3-hydroxy-2-methylphenyl)-1,3,4-thiadiazol-2-yl)methyl)-6-(2,2,2-trifluoro-1-phenylethyl)-4,6-diazaspiro[2.4]heptane-5,7-dione] the same measures were 4 nM and 108 nM.
As for `O=C1N(Cc2nnc(-c3ccc(F)c(O)c3F)s2)C2(CC2)C(=O)N1C1(c2ccccc2)CC1` [Compound I-86, 4-((5-(2,4-difluoro-3-hydroxyphenyl)-1,3,4-thiadiazol-2-yl)methyl)-6-(1-phenylcyclopropyl)-4,6-diazaspiro[2.4]heptane-5,7-dione], in data set [2], the half-inhibitory concentration (IC50) was determined as 2.5 nM. Also, the 50% effective concentration (EC50) in data set [3] (setting [5]) was found to be 4.74 nM.
The corresponding values for `O=C1N(CC2(C(F)(F)F)CC2)C(=O)C2(CC2)N1Cc1nnc(-c2ccc(F)c(O)c2Cl)s1` [Compound I-26, 4-((5-(2-chloro-4-fluoro-3-hydroxyphenyl)-1,3,4-thiadiazol-2-yl)methyl)-6-((1-(trifluoromethyl)cyclopropyl)methyl)-4,6-diazaspiro[2.4]heptane-5,7-dione] are 18.7 ± 2.67 nM and 107 nM.
